{"source": "patent US8513411B2", "about": "“Tetrahydro-imidazo[1,5-α] pyrazine derivatives, preparation process and medicinal use thereof” (Jiangsu Hengrui Medicine Co., Ltd., priority 2007, dated 2013)", "note": "Where a name gives a salt, the structure may show the parent alone.", "data": [{"target": "DPP-IV enzyme (Homo sapiens, UniProt P27487)", "sequence (P27487 whole entry)": "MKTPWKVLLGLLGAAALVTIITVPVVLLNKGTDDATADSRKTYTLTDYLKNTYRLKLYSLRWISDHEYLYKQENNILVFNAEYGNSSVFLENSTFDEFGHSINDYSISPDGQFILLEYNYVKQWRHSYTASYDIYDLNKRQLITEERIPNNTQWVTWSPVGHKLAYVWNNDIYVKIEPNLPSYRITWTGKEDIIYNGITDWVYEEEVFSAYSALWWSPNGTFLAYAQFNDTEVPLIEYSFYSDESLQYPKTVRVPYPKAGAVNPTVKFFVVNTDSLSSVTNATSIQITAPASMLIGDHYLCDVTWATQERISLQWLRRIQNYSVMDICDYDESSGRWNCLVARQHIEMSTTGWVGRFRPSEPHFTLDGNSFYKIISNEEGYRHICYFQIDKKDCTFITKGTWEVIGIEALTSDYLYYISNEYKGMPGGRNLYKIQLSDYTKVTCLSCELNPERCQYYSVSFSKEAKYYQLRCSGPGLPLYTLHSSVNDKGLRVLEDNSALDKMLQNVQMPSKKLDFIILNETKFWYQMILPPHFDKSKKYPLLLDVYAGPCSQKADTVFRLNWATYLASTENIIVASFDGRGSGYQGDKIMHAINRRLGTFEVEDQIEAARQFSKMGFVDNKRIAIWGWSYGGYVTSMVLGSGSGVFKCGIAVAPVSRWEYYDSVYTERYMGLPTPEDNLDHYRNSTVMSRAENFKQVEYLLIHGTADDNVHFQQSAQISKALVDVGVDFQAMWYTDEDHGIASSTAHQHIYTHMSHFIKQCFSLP", "assay": "Assay for determining DPP-IV inhibitory activity (DPP-IV-Glo luminescence)", "units": {"IC50": "nM"}, "procedure": "IC50 was determined by a NovoStar ELIASA (BMG Co. German);\nThe definition of inhibitory rate: [1−(S−B)/(N−B)]*100%", "values": [{"smiles": "CNC(=O)c1nc(C(F)(F)F)n2c1CN(C(=O)C[C@H](N)Cc1cc(F)c(F)cc1F)CC2", "note": "[Example 8, (R)-7-[3-Amino-4-(2,4,5-trifluoro-phenyl)-butyryl]-3-trifluoromethyl-5,6,7,8-tetrahydro-imidazo[1,5-a]pyrazine-1-carboxylic acid methylamide hydrochloride]", "IC50": 8}, {"smiles": "CCCCNC(=O)c1nc(C(F)(F)F)n2c1CN(C(=O)C[C@H](N)Cc1cc(F)c(F)cc1F)CC2", "note": "[Example 43, (R)-7-[3-Amino-4-(2,4,5-trifluoro-phenyl)-butyryl]-3-trifluoromethyl-5,6,7,8-tetrahydro-imidazo[1,5-a]pyrazine-1-carboxylic acid butylamide]", "IC50": 63}, {"smiles": "NC(=O)C1CCN(C(=O)c2nc(C(F)(F)F)n3c2CN(C(=O)C[C@H](N)Cc2cc(F)c(F)cc2F)CC3)CC1", "note": "[Example 7, (R)-1-{7-[3-Amino-4-(2,4,5-trifluoro-phenyl)-butyryl]-3-trifluoromethyl-5,6,7,8-tetrahydro-imidazo[1,5-a]pyrazine-1-carbonyl}-piperidine-4-carboxylic acid amide hydrochloride]", "IC50": 25}, {"smiles": "CC(C)OC(=O)OC(C)OC(=O)c1nc(C(F)(F)F)n2c1CN(C(=O)C[C@H](N)Cc1cc(F)c(F)cc1F)CC2", "note": "(stereo partly drawn) [Example 37, (R)-7-[3-Amino-4-(2,4,5-trifluoro-phenyl)-butyryl]-3-trifluoromethyl-5,6,7,8-tetrahydro-imidazo[1,5-a]pyrazine-1-carboxylic acid 1-isopropoxycarbonyloxy-ethyl ester hydrochloride]", "IC50": 33}, {"smiles": "N[C@@H](CC(=O)N1CCn2c(C(F)(F)F)nc(C(=O)N3CCS(=O)(=O)CC3)c2C1)Cc1cc(F)c(F)cc1F", "note": "[Example 6, (R)-3-Amino-1-[1-(1,1-dioxo-thiomorpholine-4-carbonyl)-3-trifluoromethyl-5,6-dihydro-8H-imidazo[1,5-a]pyrazin-7-yl]-4-(2,4,5-trifluoro-phenyl)-butan-1-one hydrochloride]", "IC50": 31}, {"smiles": "CCNC(=O)c1nc(C(F)(F)F)n2c1CN(C(=O)C[C@H](N)Cc1cc(F)c(F)cc1F)CC2", "note": "[Example 42, (R)-7-[3-Amino-4-(2,4,5-trifluoro-phenyl)-butyryl]-3-trifluoromethyl-5,6,7,8-tetrahydro-imidazo[1,5-a]pyrazine-1-carboxylic acid ethylamide]", "IC50": 18}, {"smiles": "N[C@@H](CC(=O)N1CCn2c(C(F)(F)F)nc(C(=O)N3CCOCC3)c2C1)Cc1cc(F)c(F)cc1F", "note": "[Example 3, (R)-3-Amino-1-[1-(morpholine-4-carbonyl)-3-trifluoromethyl-5,6-dihydro-8H-imidazo[1,5-a]pyrazin-7-yl]-4-(2,4,5-trifluoro-phenyl)-butan-1-one hydrochloride]", "IC50": 89}, {"smiles": "CN1CCN(C(=O)c2nc(C(F)(F)F)n3c2CN(C(=O)C[C@H](N)Cc2cc(F)c(F)cc2F)CC3)CC1", "note": "[Example 5, (R)-3-Amino-1-[1-(4-methyl-piperazine-1-carbonyl)-3-trifluoromethyl-5,6-dihydro-8H-imidazo[1,5-a]pyrazin-7-yl]-4-(2,4,5-trifluoro-phenyl)-butan-1-one dihydrochloride]", "IC50": 27}, {"smiles": "CCOC(=O)c1nc(C(F)(F)F)n2c1CN(C(=O)C[C@H](N)Cc1cc(F)c(F)cc1F)CC2", "note": "[Example 23, (R)-7-[3-Amino-4-(2,4,5-trifluoro-phenyl)-butyryl]-3-trifluoromethyl-5,6,7,8-tetrahydro-imidazo[1,5-a]pyrazine-1-carboxylic acid ethyl ester hydrochloride]", "IC50": 31}, {"smiles": "COC(=O)c1nc(C(F)(F)F)n2c1[C@@H](C)N(C(=O)C[C@H](N)Cc1cc(F)c(F)cc1F)CC2", "note": "[Example 41, (R)-7-[3-Amino-4-(2,4,5-trifluoro-phenyl)-butyryl]-(R)-8-methyl-3-trifluoromethyl-5,6,7,8-tetrahydro-imidazo[1,5-a]pyrazine-1-carboxylic acid methyl ester hydrochloride]", "IC50": 5}, {"smiles": "N[C@@H]1CCCN(C(=O)c2nc(C(F)(F)F)n3c2CN(C(=O)C[C@H](N)Cc2cc(F)c(F)cc2F)CC3)C1", "note": "[Example 11, (R)-3-Amino-1-[1-(3-amino-piperidine-1-carbonyl)-3-trifluoromethyl-5,6-dihydro-8H-imidazo[1,5-a]pyrazin-7-yl]-4-(2,4,5-trifluoro-phenyl)-butan-1-one dihydrochloride]", "IC50": 216}, {"smiles": "COC(=O)c1nc(C(F)(F)F)n2c1C(C)N(C(=O)C[C@H](N)Cc1cc(F)c(F)cc1F)CC2", "note": "(stereo partly drawn) [Example 39, (R)-7-[3-Amino-4-(2,4,5-trifluoro-phenyl)-butyryl]-8-methyl-3-trifluoromethyl-5,6,7,8-tetrahydro-imidazo[1,5-a]pyrazine-1-carboxylic acid methyl ester hydrochloride]", "IC50": 16}, {"smiles": "CC(OC(=O)OC1CCCCC1)OC(=O)c1nc(C(F)(F)F)n2c1CN(C(=O)C[C@H](N)Cc1cc(F)c(F)cc1F)CC2", "note": "(stereo partly drawn) [Example 38, (R)-7-[3-Amino-4-(2,4,5-trifluoro-phenyl)-butyryl]-3-trifluoromethyl-5,6,7,8-tetrahydro-imidazo[1,5-a]pyrazine-1-carboxylic acid (1-cyclohexyloxycarbonyloxy)-ethyl ester hydrochloride]", "IC50": 184}, {"smiles": "N[C@@H](CC(=O)N1CCn2c(C(F)(F)F)nc(C(=O)N3CCNCC3)c2C1)Cc1cc(F)c(F)cc1F", "note": "[Example 13, (R)-3-Amino-1-[1-(piperazine-1-carbonyl)-3-trifluoromethyl-5,6-dihydro-8H-imidazo[1,5-a]pyrazin-7-yl]-4-(2,4,5-trifluoro-phenyl)-butan-1-one dihydrochloride]", "IC50": 41}, {"smiles": "CCCNC(=O)c1nc(C(F)(F)F)n2c1CN(C(=O)C[C@H](N)Cc1cc(F)c(F)cc1F)CC2", "note": "[Example 44, (R)-7-[3-Amino-4-(2,4,5-trifluoro-phenyl)-butyryl]-3-trifluoromethyl-5,6,7,8-tetrahydro-imidazo[1,5-a]pyrazine-1-carboxylic acid propylamide]", "IC50": 52}, {"smiles": "N[C@@H](CC(=O)N1CCn2c(C(F)(F)F)nc(C(=O)N3CCCC3)c2C1)Cc1cc(F)c(F)cc1F", "note": "[Example 12, (R)-3-Amino-1-[1-(pyrrolidine-1-carbonyl)-3-trifluoromethyl-5,6-dihydro-8H-imidazo[1,5-a]pyrazin-7-yl]-4-(2,4,5-trifluoro-phenyl)-butan-1-one hydrochloride]", "IC50": 59}, {"smiles": "N[C@@H](CC(=O)N1CCn2c(C(F)(F)F)nc(C(=O)O)c2C1)Cc1cc(F)c(F)cc1F", "note": "[Example 10, (R)-7-[3-Amino-4-(2,4,5-trifluoro-phenyl)-butyryl]-3-trifluoromethyl-5,6,7,8-tetrahydro-imidazo[1,5-a]pyrazine-1-carboxylic acid hydrochloride]", "IC50": 21}, {"smiles": "CN(C)C(=O)c1nc(C(F)(F)F)n2c1CN(C(=O)C[C@H](N)Cc1cc(F)c(F)cc1F)CC2", "note": "[Example 9, (R)-7-[3-Amino-4-(2,4,5-trifluoro-phenyl)-butyryl]-3-trifluoromethyl-5,6,7,8-tetrahydro-imidazo[1,5-a]pyrazine-1-carboxylic acid dimethylamide hydrochloride]", "IC50": 75}, {"smiles": "CS(=O)(=O)CCNC(=O)c1nc(C(F)(F)F)n2c1CN(C(=O)C[C@H](N)Cc1cc(F)c(F)cc1F)CC2", "note": "[Example 2, (R)-7-[3-Amino-4-(2,4,5-trifluoro-phenyl)-butyryl]-3-trifluoromethyl-5,6,7,8-tetrahydro-imidazo[1,5-a]pyrazine-1-carboxylic acid (2-methanesulfonyl-ethyl)-amide hydrochloride]", "IC50": 8}, {"smiles": "N[C@@H](CC(=O)N1CCn2c(C(F)(F)F)nc(C(=O)NC3CC3)c2C1)Cc1cc(F)c(F)cc1F", "note": "[Example 15, (R)-7-[3-Amino-4-(2,4,5-trifluoro-phenyl)-butyryl]-3-trifluoromethyl-5,6,7,8-tetrahydro-imidazo[1,5-a]pyrazine-1-carboxylic acid cyclopropylamide hydrochloride]", "IC50": 25}, {"smiles": "N#CCNC(=O)c1nc(C(F)(F)F)n2c1CN(C(=O)C[C@H](N)Cc1cc(F)c(F)cc1F)CC2", "note": "[Example 4, (R)-7-[3-Amino-4-(2,4,5-trifluoro-phenyl)-butyryl]-3-trifluoromethyl-5,6,7,8-tetrahydro-imidazo[1,5-a]pyrazine-1-carboxylic acid cyanomethyl-amide hydrochloride]", "IC50": 22}, {"smiles": "N[C@@H](CC(=O)N1CCn2c(C(F)(F)F)nc(C(=O)N3CC[C@@H](O)C3)c2C1)Cc1cc(F)c(F)cc1F", "note": "[Example 14, (R)-3-Amino-1-[1-((R)-3-hydroxy-pyrrolidine-1-carbonyl)-3-trifluoromethyl-5,6-dihydro-8H-imidazo[1,5-a]pyrazin-7-yl]-4-(2,4,5-trifluoro-phenyl)-butan-1-one hydrochloride]", "IC50": 47}, {"smiles": "CC(C)(C)OC(=O)c1nc(C(F)(F)F)n2c1CN(C(=O)C[C@H](N)Cc1cc(F)c(F)cc1F)CC2", "note": "[Example 36, (R)-7-[3-Amino-4-(2,4,5-trifluoro-phenyl)-butyryl]-3-trifluoromethyl-5,6,7,8-tetrahydro-imidazo[1,5-a]pyrazine-1-carboxylic acid tert-butyl ester hydrochloride]", "IC50": 221}, {"smiles": "COC(=O)c1nc(C(F)(F)F)n2c1[C@H](C)N(C(=O)C[C@H](N)Cc1cc(F)c(F)cc1F)CC2", "note": "[Example 40, (R)-7-[3-Amino-4-(2,4,5-trifluoro-phenyl)-butyryl]-(S)-8-methyl-3-trifluoromethyl-5,6,7,8-tetrahydro-imidazo[1,5-a]pyrazine-1-carboxylic acid methyl ester hydrochloride]", "IC50": 314}, {"smiles": "CCOC(=O)OC(C)OC(=O)c1nc(C(F)(F)F)n2c1CN(C(=O)C[C@H](N)Cc1cc(F)c(F)cc1F)CC2", "note": "(stereo partly drawn) [Example 34, (R)-7-[3-Amino-4-(2,4,5-trifluoro-phenyl)-butyryl]-3-trifluoromethyl-5,6,7,8-tetrahydro-imidazo[1,5-a]pyrazine-1-carboxylic acid (1-ethoxycarbonyloxy)-ethyl ester hydrochloride]", "IC50": 31}]}]}
